Source: patent US5668133A, “Ophthalmic compositions comprising emedastine and methods for their use” (priority 1995, dated 1997)

What was measured:
[1] = tested on: histamine-induced vascular permeability in guinea pig conjunctiva; experiment: histamine-induced vascular permeability in guinea pig conjunctiva, topical ocular pretreatment; type: in vivo, guinea pig (Male Dunkin Hartley); conditions: for Wheal Area × Intensity: 1 min pretreatment
Description: The topical ocular antihistaminic effect of emedastine difumarate was assessed in a model of histamine induced vascular permeability in guinea pig conjunctiva. The potency of emedastine difumarate in this model was then compared with those of reference antihistamines.
Male Dunkin Hartley Viral Antibody Free outbred guinea pigs (Charles River Labs, Portage, Mich.), weighing approximately 250-350 grams (6/group) were injected intravenously (i.v.) via the marginal ear vein with 1.0 mL of Evans Blue dye (1.0 mg/mL). Forty-five (45) minutes post dye injection, 20 μL of test compound or saline vehicle was applied topically to one eye of each experimental animal. […] Responses were quantitated as described by Yanni et al. in Int. Arch. Allergy Immunol., 101:102-106 (1993). Response scores from the treated groups were then compared with scores obtained in the saline-treated group using Dunnett's t test (Dunnett C. W., "A multiple comparison procedure for comparing treatments with a control." J. Am. Stat. Assoc. 50:1096-1121(1955)). Regression analysis was used to determine relative potency (Bliss, C. and E. Gjorgy. In Vitamin Methods, Vol. 2, pp. 445-610, Academic Press, Inc., New York, 1951.).

[2] = tested on: passive anaphylaxis in guinea pig conjunctiva; experiment: passive conjunctival anaphylaxis, i.v. antigen challenge; type: in vivo
Description: Male Dunkin Hartley Viral Antibody Free outbred guinea pigs (Charles River Labs, Portage, Mich.), weighing approximately 250-350 grams (6/group) were injected intravenously (i.v.) via the marginal ear vein with 1.0 mL of Evans Blue dye (1.0 mg/mL). Forty-five (45) minutes post dye injection, 20 μL of test compound or saline vehicle was applied topically to one eye of each experimental animal. Thirty minutes following topical drug application, the guinea pigs were anesthetized and challenged subconjunctivally with histamine (300 ng/10 μL). Responses were quantitated as described by Yanni et al. in Int. Arch. Allergy Immunol., 101:102-106 (1993). Response scores from the treated groups were then compared with scores obtained in the saline-treated group using Dunnett's t test (Dunnett C. W., "A multiple comparison procedure for comparing treatments with a control." J. Am. Stat. Assoc. 50:1096-1121(1955)). Regression analysis was used to determine relative potency (Bliss, C. and E. Gjorgy. In Vitamin Methods, Vol. 2, pp. 445-610, Academic Press, Inc., New York, 1951.).
Emedastine difumarate was evaluated for its ability to inhibit a passive conjunctival immediate hypersensitivity response following topical ocular administration.
Guinea pigs (5-8/group) were passively sensitized with anti-ovalbumin serum injected subconjunctivally in one eye. Twenty-four hours after passive sensitization, ovalbumin (OA) was administered either i.v. or topically to the eye.
The allergic response following i.v. antigen challenge was assessed as follows: thirty minutes prior to challenge, animals received 20 μL of emedastine difumarate or saline applied topically to the eye. Guinea pigs were then challenged i.v. via the marginal ear vein with 1.0 mL of a solution containing 100 μg of OA and 1 mg of Evans Blue dye. Responses were quantitated as previously described in Example 2.

[3] = topically 1 minute before histamine challenge
[4] = i.v. antigen challenge, 30 min before challenge

## CCOCCn1c(N2CCCN(C)CC2)nc2ccccc21 [Emedastine Difumarate, 1-(2-ethoxyethyl)-2-(4-methyl-1-homopiperazinyl)-benzimidazole]
[1]; 0.0001 wt %, antazoline experiment (NaCl 285 ± 19)
  Wheal Area × Intensity: 159 ± 31
[1]; 0.0001 wt %, ketotifen/pheniramine experiment (NaCl 276 ± 10)
  Wheal Area × Intensity: 159 ± 26
[1]; 0.0001 wt %, pyrilamine experiment (NaCl 308 ± 20)
  Wheal Area × Intensity: 166 ± 14
[1]; 0.001 wt %, antazoline experiment (NaCl 285 ± 19)
  Wheal Area × Intensity: 109 ± 14
[1]; 0.001 wt %, ketotifen/pheniramine experiment (NaCl 276 ± 10)
  Wheal Area × Intensity: 141 ± 38
[1]; 0.001 wt %, pyrilamine experiment (NaCl 308 ± 20)
  Wheal Area × Intensity: 104 ± 20
[1]; 0.01 wt %, antazoline experiment (NaCl 285 ± 19)
  Wheal Area × Intensity: 55 ± 12
[1]; 0.01 wt %, ketotifen/pheniramine experiment (NaCl 276 ± 10)
  Wheal Area × Intensity: 45 ± 18
[1]; 0.01 wt %, levocabastine experiment (NaCl 336 ± 78)
  Wheal Area × Intensity: 26 ± 27
[1]; 0.01 wt %, pyrilamine experiment (NaCl 308 ± 20)
  Wheal Area × Intensity: 57 ± 16
[1]; 1 minute prior to histamine challenge
  ED50 (text): 0.0002%
[1]; 1 minute, 30 minutes, 2, 4 or 8 hours prior to challenge
  inhibition of the vascular permeability response: inhibited in concentration-dependent fashion
[1]; 30 min pretreatment, 0.000001 wt %, clemastine experiment (NaCl 350 ± 31)
  Wheal Area × Intensity (X ± S.D.): 265 ± 35
[1]; 30 min pretreatment, 0.000006 wt %, ketotifen experiment (NaCl 214 ± 41)
  Wheal Area × Intensity (X ± S.D.): 154 ± 62
[1]; 30 min pretreatment, 0.000006 wt %, pyrilamine experiment (NaCl 194 ± 41)
  Wheal Area × Intensity (X ± S.D.): 136 ± 42
[1]; 30 min pretreatment, 0.00001 wt %, antazoline experiment (NaCl 287 ± 20)
  Wheal Area × Intensity (X ± S.D.): 197 ± 57
[1]; 30 min pretreatment, 0.00001 wt %, brompheniramine experiment (NaCl 219 ± 20)
  Wheal Area × Intensity (X ± S.D.): 191 ± 48
[1]; 30 min pretreatment, 0.00001 wt %, chlorpheniramine experiment (NaCl 217 ± 35)
  Wheal Area × Intensity (X ± S.D.): 161 ± 68
[1]; 30 min pretreatment, 0.00001 wt %, clemastine experiment (NaCl 350 ± 31)
  Wheal Area × Intensity (X ± S.D.): 165 ± 30
[1]; 30 min pretreatment, 0.00001 wt %, diphenhydramine experiment (NaCl 214 ± 34)
  Wheal Area × Intensity (X ± S.D.): 163 ± 32
[1]; 30 min pretreatment, 0.00001 wt %, levocabastine/pheniramine experiment (NaCl 252 ± 30)
  Wheal Area × Intensity (X ± S.D.): 191 ± 27
[1]; 30 min pretreatment, 0.00006 wt %, ketotifen experiment (NaCl 214 ± 41)
  Wheal Area × Intensity (X ± S.D.): 91 ± 26
[1]; 30 min pretreatment, 0.00006 wt %, pyrilamine experiment (NaCl 194 ± 41)
  Wheal Area × Intensity (X ± S.D.): 75 ± 22
[1]; 30 min pretreatment, 0.0001 wt %, antazoline experiment (NaCl 287 ± 20)
  Wheal Area × Intensity (X ± S.D.): 65 ± 32
[1]; 30 min pretreatment, 0.0001 wt %, brompheniramine experiment (NaCl 219 ± 20)
  Wheal Area × Intensity (X ± S.D.): 104 ± 47
[1]; 30 min pretreatment, 0.0001 wt %, chlorpheniramine experiment (NaCl 217 ± 35)
  Wheal Area × Intensity (X ± S.D.): 112 ± 58
[1]; 30 min pretreatment, 0.0001 wt %, clemastine experiment (NaCl 350 ± 31)
  Wheal Area × Intensity (X ± S.D.): 70 ± 27
[1]; 30 min pretreatment, 0.0001 wt %, diphenhydramine experiment (NaCl 214 ± 34)
  Wheal Area × Intensity (X ± S.D.): 98 ± 22
[1]; 30 min pretreatment, 0.0001 wt %, levocabastine/pheniramine experiment (NaCl 252 ± 30)
  Wheal Area × Intensity (X ± S.D.): 137 ± 24
[1]; 30 min pretreatment, 0.0006 wt %, ketotifen experiment (NaCl 214 ± 41)
  Wheal Area × Intensity (X ± S.D.): 16 ± 14
[1]; 30 min pretreatment, 0.0006 wt %, pyrilamine experiment (NaCl 194 ± 41)
  Wheal Area × Intensity (X ± S.D.): 6 ± 7
[1]; 30 min pretreatment, 0.001 wt %, antazoline experiment (NaCl 287 ± 20)
  Wheal Area × Intensity (X ± S.D.): 4 ± 4
[1]; 30 min pretreatment, 0.001 wt %, brompheniramine experiment (NaCl 219 ± 20)
  Wheal Area × Intensity (X ± S.D.): 8 ± 9
[1]; 30 min pretreatment, 0.001 wt %, chlorpheniramine experiment (NaCl 217 ± 35)
  Wheal Area × Intensity (X ± S.D.): 18 ± 23
[1]; 30 min pretreatment, 0.001 wt %, clemastine experiment (NaCl 350 ± 31)
  Wheal Area × Intensity (X ± S.D.): 6 ± 7
[1]; 30 min pretreatment, 0.001 wt %, diphenhydramine experiment (NaCl 214 ± 34)
  Wheal Area × Intensity (X ± S.D.): 12 ± 19
[1]; 30 min pretreatment, 0.001 wt %, levocabastine/pheniramine experiment (NaCl 252 ± 30)
  Wheal Area × Intensity (X ± S.D.): 7 ± 9
[1]; 30 min pretreatment, relative to emedastine difumarate = 1.0, (95% Confidence limits)
  Potency: 1.0
[1]; 30 minute treatment interval
  potency compared to ketotifen: equipotent
  times more potent than brompheniramine: 7 times
  times more potent than chlorpheniramine: 7 times
  times more potent than clemastine: 10 times
  times more potent than diphenhydramine: 3333 times
  times more potent than levocabastine: 100 times
  times more potent than pyrilamine: 10 times
[1]; 30 minute treatment interval, approximate, lack of parallelism
  times more potent than pheniramine: approximately 357 times
[1]; 30 minutes prior to histamine challenge
  ED50 (text): 0.000035%
[1]; 2 hours prior to histamine challenge
  ED50 (text): 0.0029%
[1]; 4 hours prior to histamine challenge
  ED50 (text): 0.019%
[1]; 8 hours prior to histamine challenge
  ED50 (text): 0.19%
[1]; pretreatment 1 min
  ED50: 0.0002 wt %
[1]; pretreatment 1 min, 0.0001 wt %
  Percent Change: -44%
[1]; pretreatment 1 min, 0.001 wt %
  Percent Change: -62%
[1]; pretreatment 1 min, 0.01 wt %
  Percent Change: -81%
[1]; pretreatment 30 min
  ED50: 0.000035 wt %
[1]; pretreatment 30 min, 0.000006 wt %
  Percent Change: -28%
[1]; pretreatment 30 min, 0.00006 wt %
  Percent Change: -58%
[1]; pretreatment 30 min, 0.0006 wt %
  Percent Change: -93%
[1]; pretreatment 2 hr
  ED50: 0.0029 wt %
[1]; pretreatment 2 hr, 0.001 wt %
  Percent Change: -35%
[1]; pretreatment 2 hr, 0.005 wt %
  Percent Change: -53%
[1]; pretreatment 2 hr, 0.01 wt %
  Percent Change: -72%
[1]; pretreatment 4 hr
  ED50: 0.019 wt %
[1]; pretreatment 4 hr, 0.001 wt % (first line)
  Percent Change: -9%
[1]; pretreatment 4 hr, 0.1 wt %
  Percent Change: -84%
[1]; pretreatment 4 hr, 1.0 wt %
  Percent Change: -95%
[1]; pretreatment 8 hr
  ED50: 0.19 wt %
[1]; pretreatment 8 hr, 0.01 wt %
  Percent Change: -5%
[1]; pretreatment 8 hr, 0.05 wt %
  Percent Change: -33%
[1]; pretreatment 8 hr, 0.1 wt %
  Percent Change: -43%
[1]; pretreatment 8 hr, 0.5 wt %
  Percent Change: -66%
[1]; pretreatment 8 hr, 1.0 wt %
  Percent Change: -71%
[1]; topical ocular administration
  onset and duration of action: rapid onset and an acceptable duration of action
[1]; topical, 0.5 h
  times more potent than antazoline: ~5813 times
[1]; [3]
  potency compared to pyrilamine: approximately equipotent
  times more potent than antazoline: 17 times
  times more potent than ketotifen: 3 times
  times more potent than pheniramine: 8 times
[2]; 0.001% and 0.01% solutions, 30 minutes before i.v. antigen challenge
  reduction of the allergic response: significant reductions of the allergic response
[2]; i.v. antigen challenge, 0.0001 wt %, 30 min before challenge
  % Change: -41%
[2]; i.v. antigen challenge, 0.001 wt %, 30 min before challenge
  % Change: -66%
[2]; i.v. antigen challenge, 0.01 wt %, 30 min before challenge
  % Change: -96%
[2]; [4]
  ED50: 0.00022 wt %
  ED50 (text): 0.00022%
